Where “and” joins values, the source holds several entries; their conditions need not be identical. Identical values can stand only once.
System: eNOS
Experiment: eNOS protein abundance in HUVECs by immunochemical methods (Example 2)
Format: cell-based, human
Conditions: for eNOS protein abundance (mean ± sd): pg/ug total protein; for Fold difference eNOS protein abundance (mean ± sd): (LA-419 5 μM)/(control)
Source text: eNOS Activity and Protein Abundance Measurements
Using immunochemical methods, there was no change in any condition in relation to eNOS protein abundance, Tables ss-L1.

**Q.** CC(=O)SC1COC2C(O[N+](=O)[O-])COC12 (stereo not drawn) [LA-419, S-(6-Nitro-oxi-hexahydro-furo[3,2-b]furan-3-1-il)thioacetate] was tested. Which “eNOS protein abundance % Change (mean ± sd)” value (5 μM LA-419, Intron 4 variant b/a, a/a, c/c (n=14)) did it give?
**A.** 0.32 (9.26) %

**Q.** And the “eNOS protein abundance % Change (mean ± sd)” value (5 μM LA-419, Intron 4 variant b/b (n=31))?
**A.** −1.78 (6.88) %

**Q.** What about the “eNOS protein abundance (mean ± sd)” value (5 μM LA-419, G894T + T786C G/G + T/C, n=8) of the same compound?
**A.** 6.27 (1.56) pg/ug

**Q.** What about the “eNOS protein abundance (mean ± sd)” value (5 μM LA-419, G894T + T786C G/G + T/T, n=18) of the same compound?
**A.** 6.17 (1.24) pg/ug

**Q.** And the “eNOS protein abundance (mean ± sd)” value (5 μM LA-419, G894T + T786C G/T + C/C, n=1)?
**A.** 7.25 (0) pg/ug

**Q.** What about the “eNOS protein abundance (mean ± sd)” value (5 μM LA-419, G894T + T786C G/T + T/C, n=13) of the same compound?
**A.** 5.59 (1.08) pg/ug

**Q.** And the “eNOS protein abundance (mean ± sd)” value (5 μM LA-419, G894T + T786C G/T + T/T, n=4)?
**A.** 5.82 (1.49) pg/ug

**Q.** What about the “eNOS protein abundance (mean ± sd)” value (5 μM LA-419, G894T + T786C T/T + C/C, n=3) of the same compound?
**A.** 6.47 (1.34) pg/ug

**Q.** What about the “eNOS protein abundance (mean ± sd)” value (5 μM LA-419, G894T + T786C T/T + T/C, n=2) of the same compound?
**A.** 4.52 (0.30) pg/ug

**Q.** And the “eNOS protein abundance (mean ± sd)” value (5 μM LA-419, G894T G/G, n=26)?
**A.** 6.20 (1.31) pg/ug

**Q.** What about the “eNOS protein abundance (mean ± sd)” value (5 μM LA-419, G894T G/T & T/T, n=23) of the same compound?
**A.** 5.72 (1.20) pg/ug

**Q.** And the “eNOS protein abundance (mean ± sd)” value (5 μM LA-419, G894T G/T, n=18)?
**A.** 5.73 (1.17) pg/ug

**Q.** And the “eNOS protein abundance (mean ± sd)” value (5 μM LA-419, G894T T/T, n=5)?
**A.** 5.69 (1.44) pg/ug

**Q.** And the “eNOS protein abundance (mean ± sd)” value (5 μM LA-419, Genotype Combination, n=31 (title: Combination = G/G + T/T, G/G + T/C, G/G/+C/C, G/T + T/T, G/T + T/C, G/T + C/C, T/T + T/C))?
**A.** 5.86 (1.30) pg/ug

**Q.** What about the “eNOS protein abundance (mean ± sd)” value (5 μM LA-419, Genotype Reference, n=18 (title: Reference group = T/T + C/C)) of the same compound?
**A.** 6.17 (1.24) pg/ug

**Q.** What about the “eNOS protein abundance (mean ± sd)” value (5 μM LA-419, Intron 4 a/a, n=3) of the same compound?
**A.** 7.17 (1.19) pg/ug

**Q.** And the “eNOS protein abundance (mean ± sd)” value (5 μM LA-419, Intron 4 b/a, a/a, c/c, n=14)?
**A.** 6.31 (1.50) pg/ug

**Q.** What about the “eNOS protein abundance (mean ± sd)” value (5 μM LA-419, Intron 4 b/a, n=10) of the same compound?
**A.** 5.95 (1.56) pg/ug

**Q.** And the “eNOS protein abundance (mean ± sd)” value (5 μM LA-419, Intron 4 b/b, n=31)?
**A.** 5.75 (1.13) pg/ug

**Q.** What about the “eNOS protein abundance (mean ± sd)” value (5 μM LA-419, Intron 4 c/c, n=1) of the same compound?
**A.** 7.39 (0) pg/ug

**Q.** And the “eNOS protein abundance (mean ± sd)” value (5 μM LA-419, T-786C CC, n=4)?
**A.** 6.67 (1.16) pg/ug

**Q.** What about the “eNOS protein abundance (mean ± sd)” value (5 μM LA-419, T-786C T/C & C/C, n=27) of the same compound?
**A.** 5.87 (1.30) pg/ug

**Q.** What about the “eNOS protein abundance (mean ± sd)” value (5 μM LA-419, T-786C T/C, n=23) of the same compound?
**A.** 5.73 (1.29) pg/ug

**Q.** What about the “eNOS protein abundance (mean ± sd)” value (5 μM LA-419, T-786C T/T, n=22) of the same compound?
**A.** 6.11 (1.26) pg/ug

**Q.** And the “eNOS protein abundance % Change (mean ± sd)” value (5 μM LA-419 vs control, n=2)?
**A.** −4.89 (0.49) %

**Q.** What about the “eNOS protein abundance % Change (mean ± sd)” value (5 μM LA-419 vs control, G894T G/G, n=26) of the same compound?
**A.** −1.07 (8.07) %

**Q.** And the “eNOS protein abundance % Change (mean ± sd)” value (5 μM LA-419 vs control, G894T G/T, n=18)?
**A.** −0.79 (7.54) %

**Q.** And the “eNOS protein abundance % Change (mean ± sd)” value (5 μM LA-419 vs control, G894T T/T, n=5)?
**A.** −1.54 (6.56) %

**Q.** What about the “eNOS protein abundance % Change (mean ± sd)” value (5 μM LA-419 vs control, Intron 4 a/a, n=3) of the same compound?
**A.** 1.11 (10.89) %

**Q.** What about the “eNOS protein abundance % Change (mean ± sd)” value (5 μM LA-419 vs control, Intron 4 b/a, n=10) of the same compound?
**A.** 0.68 (9.65) %

**Q.** And the “eNOS protein abundance % Change (mean ± sd)” value (5 μM LA-419 vs control, Intron 4 b/b, n=31)?
**A.** −1.78 (6.88) %

**Q.** And the “eNOS protein abundance % Change (mean ± sd)” value (5 μM LA-419 vs control, Intron 4 c/c, n=1)?
**A.** −5.66 (0) %

**Q.** And the “eNOS protein abundance % Change (mean ± sd)” value (5 μM LA-419 vs control, Race Asian, n=1)?
**A.** −17.56 (0) %

**Q.** What about the “eNOS protein abundance % Change (mean ± sd)” value (5 μM LA-419 vs control, Race Black, n=12) of the same compound?
**A.** −5.95 (6.82) %

**Q.** And the “eNOS protein abundance % Change (mean ± sd)” value (5 μM LA-419 vs control, Race Caucasian, n=26)?
**A.** 2.50 (6.89) %

**Q.** What about the “eNOS protein abundance % Change (mean ± sd)” value (5 μM LA-419 vs control, Race Hispanic, n=6) of the same compound?
**A.** −1.16 (4.99) %

**Q.** And the “eNOS protein abundance % Change (mean ± sd)” value (5 μM LA-419 vs control, Race Not Reported, n=2)?
**A.** −4.62 (0.81) %

**Q.** And the “eNOS protein abundance % Change (mean ± sd)” value (5 μM LA-419 vs control, T-786C C/C, n=4)?
**A.** −6.82 (6.09) %

**Q.** And the “eNOS protein abundance % Change (mean ± sd)” value (5 μM LA-419 vs control, T-786C T/C, n=23)?
**A.** −0.37 (9.0) %

**Q.** And the “eNOS protein abundance % Change (mean ± sd)” value (5 μM LA-419 vs control, T-786C T/T, n=22)?
**A.** −0.64 (5.88) %

**Q.** What about the “Fold difference eNOS protein abundance (mean ± sd)” value (Combination of all G894T + T-786C genotypes but G/G + T/T, n=31) of the same compound?
**A.** 0.99 (0.09)

**Q.** What about the “Fold difference eNOS protein abundance (mean ± sd)” value (Combination of all G894T + T-786C genotypes but T/T + C/C, n=46) of the same compound?
**A.** 0.99 (0.08)

**Q.** And the “Fold difference eNOS protein abundance (mean ± sd)” value (G894T + T-786C G/G + T/C, n=8)?
**A.** 0.98 (0.12)

**Q.** What about the “Fold difference eNOS protein abundance (mean ± sd)” value (G894T + T-786C G/G + T/T, n=18) of the same compound?
**A.** 0.99 (0.06)

**Q.** What about the “Fold difference eNOS protein abundance (mean ± sd)” value (G894T + T-786C G/T + C/C, n=1) of the same compound?
**A.** 0.88 (0)

**Q.** And the “Fold difference eNOS protein abundance (mean ± sd)” value (G894T + T-786C G/T + T/C, n=13)?
**A.** 1.00 (0.07)

**Q.** What about the “Fold difference eNOS protein abundance (mean ± sd)” value (G894T + T-786C G/T + T/T, n=4) of the same compound?
**A.** 1.00 (0.08)

**Q.** What about the “Fold difference eNOS protein abundance (mean ± sd)” value (G894T + T-786C T/T + C/C, n=3) of the same compound?
**A.** 0.95 (0.06)

**Q.** What about the “Fold difference eNOS protein abundance (mean ± sd)” value (G894T + T-786C T/T + T/C, n=2) of the same compound?
**A.** 1.04 (0.01)

**Q.** And the “Fold difference eNOS protein abundance (mean ± sd)” value (G894T G/G & G/T, n=44)?
**A.** 0.99 (0.08)

**Q.** What about the “Fold difference eNOS protein abundance (mean ± sd)” value (G894T G/G, n=26) of the same compound?
**A.** 1.00 (0.08) and 0.99 (0.08)

**Q.** What about the “Fold difference eNOS protein abundance (mean ± sd)” value (G894T G/T & T/T, n=23) of the same compound?
**A.** 0.99 (0.07)

**Q.** What about the “Fold difference eNOS protein abundance (mean ± sd)” value (G894T G/T, n=18) of the same compound?
**A.** 0.99 (0.08)

**Q.** What about the “Fold difference eNOS protein abundance (mean ± sd)” value (G894T T/T, n=5) of the same compound?
**A.** 0.98 (0.07)

**Q.** And the “Fold difference eNOS protein abundance (mean ± sd)” value (Intron 4 a/a, n=3)?
**A.** 1.01 (0.11)
